The values below come from patent publication US8883763B2 (Universite Joseph Fourier, priority 2010, dated 2014).

pIC50: −log10 of the molar value.

One experiment deals with bovine brain tubulin. As to the kind of experiment: In vitro tubulin polymerization test (turbidimetry at 350 nm). It is filed as biochemical. Conditions: molecules at 50 μM, calculated at t=3000 s, DMSO control = 100%. How it is done:
Tubulin was purified from bovine brain using the polymerization-depolymerization process described by (Castoldi M and Popov A V. Protein Expr Purif. 2003, 32(1): pp 83-8).
The in vitro tubulin polymerization tests (at 50 μM) were carried out in the presence of GTP 1 mM in BRB80 buffer (80 mM K-PIPES pH 6.8, 1 mM MgCl2, 1 mM EGTA) at 37° C. The tests were carried out in 96-microwell plates (half-wells) (Costar plates, Corning #3695), in triplicate with a final volume of 70 μl. Tubulin assembly was carried out in the presence of compound 6 or its analogues (all used at a concentration of 50 μM) and was monitored by turbidimetry measurement at 350 nm using a spectrophotometer (Spectramax More, Molecular Devices).
Measurement of the effect of a molecule on polymerization was calculated at t=3000 s taking the value of the control at the same time as being equal to 100%.

In another experiment the test system is HeLa cells. In words: Indirect immunofluorescence: effect on HeLa cells (mitotic arrest, microtubule depolymerization). More on the design: key to Effect on Hela at 25 μM / Effect on Hela at 100 μM / Effect on Hela at 50 and 100 μM / Effect on Hela at 50 μM: —: −: no activity on the cells at 25 μM (if there is an effect at high concentrations, this is specified in the table).; *: weak activity (MA and/or slight depolymerization of the MTs and/or slight inhibition of proliferation),; **: average activity (MA and/or moderate depolymerization of the MTs and/or moderate inhibition of proliferation),; ***: strong activity (MA and/or pronounced depolymerization of the MTs and/or pronounced inhibition of proliferation),; ****: very strong activity (MA and/or very pronounced depolymerization of the MTs and/or strong inhibition of proliferation). It is filed as cell-based, human. The settings on record: 24 hours; for Effect on Hela at 25 μM: mitotic index and/or depolymerization of the MTs. The method, then:
The cells were cultured on slides in 24-well plates and incubated for 24 hours with molecule 6 at different concentrations from 1 to 10 μM.
Corresponding quantities of DMSO were added to the culture medium in the control wells.
The cells were fixed in a solution of PBS with 4% paraformaldehyde (PFA) and 0.1% glutaraldehyde (GA), for 15 minutes and centrifuged at 300 g for the last 10 minutes of the fixing. The slides were rinsed in PBS and the free aldehyde groups were reduced by two successive 5-minute incubations in PBS containing 1 mg/ml of NaBH4.
After one washing with PBS then another with PBST (PBS with 0.5% triton-X-100), the cells are incubated for 30 minutes at ambient temperature with anti α-tubulin monoclonal antibody solution (DM1A clone, Sigma # T6199) diluted to 1:200 in PBST. After 3 10-minute washings with PBST, the cells are incubated for 30 minutes at ambient temperature in a solution of goat anti-mouse polyclonal antibodies coupled with Alexa 488 (1:1000, Molecular Probes # A-11029) and phalloidin coupled with Texas red to label the actin (1:2000, Molecular Probes # T7471), in PBST also containing Hoechst 33258 (1 μg/ml) for labelling the DNA. After 3 10-minute washings in PBST, the slides are mounted on plates in Fluorsave™ mounting medium (Calbiochem #345789) and are observed and analyzed using an Axiovert 200M inverted fluorescence microscope (Zeiss®). The images are produced with a Plan-Apochromat 63× oil objective (Zeiss®) by means of a Coolsnap HQ camera (Roper Scientifics®) and with Metamorph acquisition software (Universal Imaging™ Corporation).
In order to evaluate the effect of the analogues of compound 6 on PHFs and HeLa cells, the immunofluorescence technique described above was used and adapted to a 96-well dish format. The cells were seeded in glass-bottomed 96-well dishes and incubated for 24 hours in the presence of different concentrations of molecules from 100 μM to 50 nM. And in the same way as described above, the cells were fixed and immunolabelled. Analysis of the phenotypes as well as counting the mitotic cells were carried out with the same microscope but using a ×40 objective (Olympus). The molecules were compared with each other with respect to the mitotic arrest induced on PHFs and HeLa cells at 25 and 0.3 μM.
The mitotic index and/or the depolymerization of the MTs were evaluated at 25 μM.

The next experiment deals with T1, PP1α (PP1CA) (Oryctolagus cuniculus, UniProt P62139).
T1 construct: purchased New England Biolabs P0754
T1 sequence (P62139 whole entry): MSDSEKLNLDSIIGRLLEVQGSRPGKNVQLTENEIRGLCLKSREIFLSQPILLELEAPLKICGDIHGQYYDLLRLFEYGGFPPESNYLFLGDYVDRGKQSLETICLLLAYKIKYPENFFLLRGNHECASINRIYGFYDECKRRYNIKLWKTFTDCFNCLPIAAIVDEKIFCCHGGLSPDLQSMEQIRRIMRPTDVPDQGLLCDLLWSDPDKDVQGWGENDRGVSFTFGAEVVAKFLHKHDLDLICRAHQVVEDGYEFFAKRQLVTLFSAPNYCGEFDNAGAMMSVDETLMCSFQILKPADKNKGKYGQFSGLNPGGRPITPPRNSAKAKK
As to the kind of experiment: Protein phosphatase test (PP1 activity, DiFMUP fluorescent substrate). It is filed as biochemical. The settings on record: PP1CA at 80 mU, fluorescent substrate (50 μM), molecules from 50 μM to 50 nM; read-out: PP1 Inhibition IC50. How it is done: FIG. 13 presents the graph showing the inhibition of the PP1Cα activity by compound 6 in vitro. PP1Cα (New England Biolabs, 30 mU/well) was incubated in the presence of compound 6 at different concentrations and a fluorescent substrate, diFMUP.
Determination of the 1050 was carried out with PP1CA at 80 mU in the presence of a fluorescent substrate
(50 μM) and different concentrations of molecules from 50 μM to 50 nM.
For the activity tests, PP1α (New England Biolabs # P0754) was used at a final concentration of 30 mU or 80 mU for the screening of all the analogues. 6,8-difluoro-4-methylumbelliferyl phosphate (DiFMUP, Invitrogen # D6567) was used as fluorescent substrate at a concentration of […]. All the tests were carried out in a final volume of 100 μl, at 37° C. in 96-microwell plates (Greiner #655096).
Compound 6, combretastatin A4 (CA-4) as well as all the analogues were diluted in 50 μl of PP1 buffer (100 mM Tris-HCl, pH 7.5, 4 mM DTT, 0.2 mM EDTA, 0.5 mM MnCl2) from 50 μM to 50 nM. Corresponding quantities of DMSO were added to control wells. PP1α (30 or 80 mU in 30 μl of PP1 buffer) was added to each well. After incubating for 15 minutes at AT, the substrate was added (in 20 μl of PP1 buffer). After incubating for 20 minutes at 37° C., the fluorescence was measured in a plate fluorometer at 355-460 nm in order to assay the phosphatase activity. The test was carried out three times in duplicate for each condition.

The subject of the next experiment is HMEC cells. In words: Proliferation of HMEC cells (GI50). The settings on record: Homo sapiens, 120 h, 50 μM to 1 nM for 5 days. Type of experiment: cell-based. How it is done: The HMECs were seeded at 10% confluence and incubated with the molecules at different concentrations (from 50 μM to 1 nM) for 5 days. The GI50 (50% Growth Inhibition) defines the concentration inducing a 50% reduction in proliferation with respect to the control.

What is called pIC50 is the IC50 on a negative log10 scale, so that one unit is a factor of ten. For orientation: GI50 means the concentration giving 50% growth inhibition. For the compound `COc1ccc(COc2nc(-c3ccc(OC)cc3)c(I)c3ccc(OC)cc23)cc1` [Compound 69, 4-Iodo-7-methoxy-1-(4-methoxybenzyloxy)-3-(4-methoxyphenyl)isoquinoline], the Tubulin polymerization inhibition entry in the experiment on bovine brain tubulin is “+ ((+) signifies that the molecule induces tubulin assembly inhibition in vitro comprised between 6 and 25% of the DMSO control.)”. Further, in the experiment with HeLa cells, the “Effect on Hela at 25 μM” value is on record as “—”. Further, at PP1α (PP1CA), the pIC50 is 4.30 to 4.60. The compound further came in with a GI50 in the experiment with HMEC cells of 25 to 50 µM.
Consider `COc1ccc(-c2[nH]c(=O)c3cc(OC)ccc3c2-c2ccc(OC)cc2)cc1` [Compound 5], for which, in the experiment with bovine brain tubulin, the Tubulin polymerization inhibition result was “+++ ((+++) signifies that the molecule induces tubulin assembly inhibition in vitro of more than 50% with respect to the DMSO control.)”. Besides, the “Effect on Hela at 25 μM” value with HeLa cells is “***”. Further, at PP1α (PP1CA), the negative logarithm of the IC50 (pIC50) is less than 4.30. Also, the GI50 in the experiment on HMEC cells lay in the range of 0.1 to 1 µM.
On to `COc1ccc(-c2cc3ccc(OC)cc3c(OC)n2)cc1` [Compound 64, 1,7-Dimethoxy-3-(4-methoxyphenyl)isoquinoline], for which the Tubulin polymerization inhibition entry in the experiment on bovine brain tubulin is “— ((−) signifies that the molecule induces little or no tubulin assembly inhibition in vitro: 0+ or − −5% of the DMSO control.)”. Also, in the experiment with HeLa cells, the “Effect on Hela at 25 μM” value is recorded as “—”. Besides, the pIC50 on PP1α (PP1CA) is 4.62 to 5.00. The same compound returned a GI50 with HMEC cells of more than 50 µM.
In the case of `O=c1[nH]c(-c2ccc(O)cc2)c(Cl)c2ccc(O)cc12` [Compound 56, 4-Chloro-7-hydroxy-3-(4-hydroxyphenyl)isoquinoline-1(2H)-one], the Tubulin polymerization inhibition result in the experiment with bovine brain tubulin is “— ((−) signifies that the molecule induces little or no tubulin assembly inhibition in vitro: 0+ or − −5% of the DMSO control.)”. In addition, in the experiment on HeLa cells, the “Effect on Hela at 25 μM” value was “—”. Besides, the “Effect on Hela at 100 μM” value in the experiment on HeLa cells (100 μM) is “*”. Besides, at PP1α (PP1CA), the negative logarithm of the IC50 (pIC50) was 4.62 to 5.00. Further, the GI50 in the experiment with HMEC cells is more than 50 µM.
For the compound `COc1ccc2c([N+](=O)[O-])c(-c3ccc(O)cc3)[nH]c(=O)c2c1` [Compound 72, 3-(4-hydroxyphenyl)-7-methoxy-4-nitroisoquinolin-1(2H)-one], the Tubulin polymerization inhibition entry in the experiment on bovine brain tubulin was “++ ((++) signifies that the molecule induces tubulin assembly inhibition in vitro comprised between 26 and 50% of the DMSO control.)”. Moreover, in the experiment with HeLa cells, the “Effect on Hela at 25 μM” value is given as “****”. At PP1α (PP1CA), the negative-log IC50 (pIC50) is 4.62 to 5.00. The compound also yielded a GI50 in the experiment with HMEC cells of 0.1 to 1 µM.
Consider `COc1ccc2c([N+](=O)[O-])c(-c3ccc(C#CC(C)(C)O)cc3)[nH]c(=O)c2c1` [Compound 59], for which, in the experiment with bovine brain tubulin, the Tubulin polymerization inhibition result is “— ((−) signifies that the molecule induces little or no tubulin assembly inhibition in vitro: 0+ or − −5% of the DMSO control.)”. In the experiment with HeLa cells, the “Effect on Hela at 25 μM” value is “—”. Further, the negative-log IC50 (pIC50) at PP1α (PP1CA) was 4.30 to 4.60. Besides, the GI50 in the experiment with HMEC cells was more than 50 µM.
Regarding `COc1ccc(-c2[nH]c(=O)c3cc(OC)ccc3c2Cl)cc1` [Compound 14, 4-Chloro-7-methoxy-3-(4-methoxyphenyl)isoquinoline-1(2H)-one], the Tubulin polymerization inhibition entry in the experiment with bovine brain tubulin is given as “+++ ((+++) signifies that the molecule induces tubulin assembly inhibition in vitro of more than 50% with respect to the DMSO control.)”. Also, the “Effect on Hela at 25 μM” value in the experiment with HeLa cells was “—”. The pIC50 at PP1α (PP1CA) was less than 4.30. Also, in the experiment on HMEC cells, the GI50 lay in the range of 25 to 50 µM.
`COc1ccc(-c2cc3ccc(OC)cc3c(=O)n2N)cc1` [Compound 61, 2-Amino-7-methoxy-3-(4-methoxyphenyl)isoquinoline-1(2H)-one]: the Tubulin polymerization inhibition entry in the experiment on bovine brain tubulin is given as “— ((−) signifies that the molecule induces little or no tubulin assembly inhibition in vitro: 0+ or − −5% of the DMSO control.)”. In the experiment on HeLa cells, the “Effect on Hela at 25 μM” value was “—”. Besides, the pIC50 on PP1α (PP1CA) was less than 4.30. Also, in the experiment with HMEC cells, the GI50 was more than 50 µM.
`COc1ccc(-c2nc(N)c3cc(OC)ccc3c2[N+](=O)[O-])cc1` [Compound 71, 1-Amino-7-methoxy-3-(4-methoxyphenyl)-4-nitroisoquinoline]: in the experiment with bovine brain tubulin, the Tubulin polymerization inhibition result is “+ ((+) signifies that the molecule induces tubulin assembly inhibition in vitro comprised between 6 and 25% of the DMSO control.)”. In addition, the “Effect on Hela at 25 μM” value in the experiment with HeLa cells is “—”. The pIC50 on PP1α (PP1CA) was less than 4.30. Besides, the GI50 in the experiment with HMEC cells lay in the range of 25 to 50 µM.
Consider `O=c1[nH]c(-c2ccc(O)cc2)cc2ccc(O)cc12` [Compound 57, 7-Hydroxy-3-(4-hydroxyphenyl)isoquinoline-1(2H)-one], for which the Tubulin polymerization inhibition entry with bovine brain tubulin was “+ ((+) signifies that the molecule induces tubulin assembly inhibition in vitro comprised between 6 and 25% of the DMSO control.)”. In addition, the “Effect on Hela at 25 μM” value in the experiment on HeLa cells is listed as “***”. The pIC50 on PP1α (PP1CA) is less than 4.30. Besides, the GI50 in the experiment on HMEC cells lay within 1 to 25 µM.
With `COc1ccc2c([N+](=O)[O-])c(-c3ccc(C#CC(C)(C)C)cc3)[nH]c(=O)c2c1` [Compound 60, 3-(4-(3,3-dimethylbut-1-ynyl)phenyl)-7-methoxy-4-nitroisoquinolin-1(2H)-one], the Tubulin polymerization inhibition entry in the experiment with bovine brain tubulin is recorded as “— ((−) signifies that the molecule induces little or no tubulin assembly inhibition in vitro: 0+ or − −5% of the DMSO control.)”. Also, the “Effect on Hela at 25 μM” value with HeLa cells is listed as “***”. Also, on PP1α (PP1CA), the pIC50 is not below 5.05. This compound also had a GI50 with HMEC cells of 1 to 25 µM.
Take `COc1ccc(-c2[nH]c(=O)c3cc(OC)ccc3c2NCCOCCO)cc1` [Compound 50, 4-(2-(2-hydroxyethoxy)ethylamino)-7-methoxy-3-(4-methoxyphenyl)isoquinolin-1(2H)-one]: the Tubulin polymerization inhibition entry in the experiment with bovine brain tubulin is reported as “+++ ((+++) signifies that the molecule induces tubulin assembly inhibition in vitro of more than 50% with respect to the DMSO control.)”. Besides, the “Effect on Hela at 25 μM” value in the experiment with HeLa cells is “—”. The pIC50 at PP1α (PP1CA) is less than 4.30. In addition, the GI50 in the experiment with HMEC cells lay within 25 to 50 µM.
On the same counts, the results for `Nc1c(-c2ccccc2)[nH]c(=O)c2ccccc12` [Compound 2] are “— ((−) signifies that the molecule induces little or no tubulin assembly inhibition in vitro: 0+ or − −5% of the DMSO control.)”, “—”, less than 4.30 and 25 to 50 µM.
